≈ marks a conversion by molar mass, not a printed value.
What was measured:
[1] = tested on: M. haemolytica (strain: OSU-012103-BHI); assay: Bovine M. haemolytica intratracheal lung challenge model, mortality; type: in vivo; conditions: M. haemolytica challenge Day 0; subcutaneous Day -1; M9 10 mg/kg, Draxxin 2.5 mg/kg; 6 animals
Method: To evaluate immunomodulation effects and potential biomarkers, a bovine M. haemolytica (strain: OSU-012103-BHI) intratracheal lung challenge model study was completed utilizing M9 treatment in the presence and absence of bacterial challenge and a Draxxin® comparator. […] Animals were administered 0.05 mL/kg saline (T01), 10 mg/kg M9 (T02); Draxxin 2.5 mg/kg (T03) and 10 mg/kg M9 (T04) by subcutaneous injection on Day-1. Dose was based on body weight. Animals were challenge on Day 0 with the exception of T04. Blood was collected longitudinally throughout the study for biomarker evaluation panel (e.g., IL-6 and CD163) including two baseline samples prior to treatment. FIG. 4A depicts the area under the curve concentrations for IL-6 protein for individual animals against percent lung lesion scores and FIG. 4B depicts the CD163 fold change area under the curve for individual animals against percent lung lesion scores. Data is represented as percent lung lesion scores against the area under the curve (AUC) for IL-6 protein (immunoassay expressed in pg/mL) and CD163 (flow cytometric mean fluorescent intensity (MFI) in fold change from baseline). In both assays, a 2-fold change is typically considered to be relevant.

E. coli = assay: MIC, E. coli; type: cell-based; conditions: Escherichia coli
Description: Primary screening of the compounds of the invention included the evaluation of antibacterial activity of analogs through determination of microbial inhibition concentration (MIC) as per CLSI guidelines. The screening panel included the relevant BRD pathogens: 1) M. haemolytica (e.g., 12726, 46571 and 49023, all AHDRCC; and 33396 (ATCC)); and 2) P. multocida (e.g., 34135 and 46572 (both AHDRCC) and 43137 (ATCC)). In some instances, H. somni (A700025K) pathogens were also included in the screening panel. The AHDRCC strains originated from the Zoetis BRD/SRD surveillance program and refer to the Animal Health Development and Research Culture Collection. In addition, the screen assessed S. aureus (29213 ATCC) as a representative Gram-positive isolate, E.faecalis (19433 ATCC) as a commensal gram-positive gastrointestinal bacterium and E. coli (100, 3110 and 25922 (ATCC)) for the evaluation of efflux potential. The screening panel BRD pathogens were assessed in determining antibacterial activity of the Formula (1) compounds.
All relevant BRD pathogens were initially screened at a top concentration of 64 μg/mL of a Formula (1) compound in an eleven-point dilution series. […] If an Example was purified further, the MICs moved […] essentially two dilutions across all strains tested in the screening panel.
In-Vitro MIC Model Compounds were analyzed for antibacterial activity against a panel of animal health specific gram-positive and gram-negative clinical strains by diluting compounds in DMSO to an appropriate stock concentration to determine the Minimal Inhibitory Concentration (MIC) via a semi-automated broth micro-dilution method (CLSI reference method) with QC strains and anti-microbial agent(s). Specifically, bacteria were grown overnight on TSA w/5% sheep blood agar plates and diluted in saline buffer to a McFarland Standard 0.5, then further diluted in cation-ion adjusted Mueller Hinton Broth to a final concentration of approximately 5×10^5 CFU/mL. 100 μL of inoculated media was added to 96-well plate(s) with 3 μL of serially diluted compound in each row. Depending on strain (see CLSI reference method), bacteria were incubated 18-22 hours at 35-37° C. in ambient air, with 5% CO2 or anaerobically (up to 48 hours).

IL-6 = IL-6 biomarker in bovine M. haemolytica challenge; type: in vivo
Method: Cytokine Detection—An MSD U-Plex cytokine assay was developed following the MSD U-Plex protocol guide and included biotinylated capture antibodies against: bovine Interleukin (IL)-1β (Biorad), bovine IL-6 (R&D Systems) and bovine tumor necrosis factor (TNF)-α (R&D Systems). The anti-IL-1β antibody was biotinylated using EZ-Link Sulfo-NHS-Biotin (Thermo Scientific) at a challenge ratio of 1:20 according to manufacturer instructions. Assay calibrators (Kingfisher) were diluted to a concentration of […] in control lithium heparin plasma, followed by 4-fold serial dilutions into plasma. The detection antibodies were sulfo-tagged following the MSD quick guide conjugation protocol using a challenge ratio of 1:20. Antibodies were used at the following concentrations: anti-IL-1β at 1 μg/mL, anti-IL-6 at 1 μg/mL and anti-TNF-α at 0.5 μg/mL. Cytokines were quantified according to manufacturer's instructions using a chemiluminescent readout. In brief, 0.5 mL of all biotinylated antibodies were diluted to 10 μg/mL with Diluent 100 and paired to their respective linkers by adding 750 μL of supplied Linker solution and incubated for 30 minutes followed by addition of Stop solution for another 30 minutes. […] Plates were washed a further three times before addition of 150 μL 2X Read buffer and read immediately on the SI6000 instrument (MSD). […]

P. multocida = assay: Murine P. multocida intranasal challenge study, treatment 18 hours after challenge, survival; type: in vivo, mice; conditions: subcutaneous 18 hours after challenge (5×10^3 CFU/mouse); tulathromycin 16 mg/kg, M9 32 mg/kg, ceftiofur 9 mg/kg
Method: In one murine P. multocida intranasal challenge study, mice were administered tulathromycin (16 mg/kg; T02), M9 (32 mg/kg; T03), or ceftiofur (9 mg/kg; T04) by subcutaneous injection 18 hours after bacterial challenge (5×10^3 CFU/mouse) for lung tissue RNA sequence analysis. Survival at Day 7 was about 80%, 50%, and 90% for T02, T03, and T04, respectively, compared to placebo at 0%. Differential gene expression from total lung tissue RNA sequence analysis indicated at least 226 unique genes were up or down regulated (with significance) for T03. Output from ingenuity pathway analysis of these unique genes predicted major upstream regulators of the involved pathways. Data was analyzed based on the number of genes being modulated in the same direction that were associated with a given upstream regulator. An activation z-score of 2 or greater is considered significant and the direction change is indicated by + (activated) or -(inhibited). The top 5 pathways included: IL-9 signaling, glucocorticoid receptor signaling, prolactin signaling, JAK STAT signaling, and IL-17 signaling. The top 6 upstream regulators (activation z-score) included: lipopolysaccharide (−6.725), TNF (−4.669), IFNγ (−5.759), IL-1β (−5.947), STAT1 (−2.787), and poly rl: rC-RNA (−5.289). Even though this study was run in the murine model, the top upstream regulators identified as being modulated by M9 include an almost ubiquitous overlap with the pathways identified in the natural disease study as being key mediators in BRD, and therefore is modulating highly relevant pathways in BRD pathobiology.

CCCNC[C@]1(O)[C@H](C)O[C@@H](O[C@H]2[C@H](C)[C@@H](O[C@@H]3O[C@H](C)C[C@H](N(C)C)[C@H]3O)[C@](C)(O)C[C@@H](C)CN[C@H](C)[C@@H](O)[C@](C)(O)[C@@H](CC)OC(=O)[C@@H]2C)C[C@@]1(C)OC [tulathromycin, (2R,3S,4R,5R,8R,10R,11R,12S,13S,14R)-11-(((2S,3R,4S,6R)-4-(dimethylamino)-3-hydroxy-6-methyltetrahydro-2H-pyran-2-yl)oxy)-2-ethyl-3,4,10-trihydroxy-13-(((2R,4R,5S,6S)-5-hydroxy-4-methoxy-4,6-dimethyl-5-((propylamino)methyl)tetrahydro-2H-pyran-2-yl)oxy)-3,5,8, 10, 12, 14-hexamethyl-1-oxa-6-azacyclopentadecan-15-one]
Mortality [1]: 0/6
MIC (E. coli; E. coli 25922): 2 µg/mL (≈ 2.48 µM)
MIC (E. coli; E. coli W3110): 8 µg/mL (≈ 9.92 µM)
IL-6 levels (IL-6): significantly reduced IL-6 levels
Survival at Day 7 (P. multocida): about 80%
